# “And” between values parts separate entries of the source, which are not always exact repeats. Equal entries are not always repeated. The source made the active and inactive calls.
# Columns and labels:
# [1] = target: T1, Replicative DNA helicase DnaB (Mycobacterium tuberculosis, UniProt P9WMR3); experiment: DnaB intein splicing inhibitors, dose response, biochemical, cell-free fluorescence (AID 449749); assay type: functional
# T1 sequence (P9WMR3 whole entry): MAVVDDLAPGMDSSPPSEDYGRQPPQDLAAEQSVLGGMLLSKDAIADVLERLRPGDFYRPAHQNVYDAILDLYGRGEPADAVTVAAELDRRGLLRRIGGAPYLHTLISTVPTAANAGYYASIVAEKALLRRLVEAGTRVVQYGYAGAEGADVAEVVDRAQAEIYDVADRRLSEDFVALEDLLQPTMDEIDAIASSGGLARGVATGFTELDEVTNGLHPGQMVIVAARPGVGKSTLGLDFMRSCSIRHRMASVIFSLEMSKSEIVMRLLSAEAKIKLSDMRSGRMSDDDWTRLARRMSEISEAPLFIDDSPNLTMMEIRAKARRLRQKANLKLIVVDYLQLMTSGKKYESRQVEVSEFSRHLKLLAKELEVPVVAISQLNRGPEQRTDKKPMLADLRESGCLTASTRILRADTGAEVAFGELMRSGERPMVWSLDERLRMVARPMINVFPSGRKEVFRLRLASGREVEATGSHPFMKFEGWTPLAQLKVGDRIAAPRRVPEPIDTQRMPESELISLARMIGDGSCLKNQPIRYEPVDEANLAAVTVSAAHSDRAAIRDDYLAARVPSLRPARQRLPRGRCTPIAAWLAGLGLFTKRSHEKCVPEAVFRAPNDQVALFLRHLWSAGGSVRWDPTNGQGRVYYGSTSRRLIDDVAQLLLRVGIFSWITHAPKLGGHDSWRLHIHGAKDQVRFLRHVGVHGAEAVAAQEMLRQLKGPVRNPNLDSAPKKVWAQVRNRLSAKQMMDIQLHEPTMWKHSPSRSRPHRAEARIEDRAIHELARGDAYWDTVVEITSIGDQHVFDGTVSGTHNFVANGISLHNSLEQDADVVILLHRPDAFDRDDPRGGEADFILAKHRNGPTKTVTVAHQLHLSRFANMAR
# [2] = target: T2, Protein RecA (Mycobacterium tuberculosis, UniProt P9WHJ3); experiment: Fluorescence Cell-Free Homogeneous Dose Retest to Identify Inhibitors of RecA-Intein Splicing Activity. [Related pubchem assays (depositor defined):AID2097, AID2223, AID489010, AID492950]; assay type: functional
# T2 sequence (P9WHJ3 whole entry): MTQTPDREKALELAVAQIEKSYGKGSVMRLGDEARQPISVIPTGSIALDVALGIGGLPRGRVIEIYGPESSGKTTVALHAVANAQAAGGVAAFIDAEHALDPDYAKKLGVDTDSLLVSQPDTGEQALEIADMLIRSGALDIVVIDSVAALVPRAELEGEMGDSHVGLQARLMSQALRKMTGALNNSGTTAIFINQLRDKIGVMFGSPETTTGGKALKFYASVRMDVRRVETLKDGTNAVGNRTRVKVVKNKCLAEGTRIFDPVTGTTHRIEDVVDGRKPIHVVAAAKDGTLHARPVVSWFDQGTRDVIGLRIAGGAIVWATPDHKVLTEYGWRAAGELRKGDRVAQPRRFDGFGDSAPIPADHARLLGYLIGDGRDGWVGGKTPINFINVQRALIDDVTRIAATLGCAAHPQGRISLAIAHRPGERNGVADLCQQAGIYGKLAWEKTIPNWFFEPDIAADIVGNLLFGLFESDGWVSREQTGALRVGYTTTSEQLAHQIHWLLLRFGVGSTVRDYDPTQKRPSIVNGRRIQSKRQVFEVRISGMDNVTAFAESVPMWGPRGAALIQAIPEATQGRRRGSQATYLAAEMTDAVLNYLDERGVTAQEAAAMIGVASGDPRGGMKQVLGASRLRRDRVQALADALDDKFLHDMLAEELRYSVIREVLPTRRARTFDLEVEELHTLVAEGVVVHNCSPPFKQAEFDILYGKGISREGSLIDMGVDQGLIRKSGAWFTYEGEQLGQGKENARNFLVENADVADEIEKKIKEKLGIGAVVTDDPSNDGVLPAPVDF
# [3] = target: Cytochrome P450 3A4 (Homo sapiens, UniProt P08684);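 also: CYP3A4 tested as one member of a cytochrome P450 panel screen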
# [4] = target: Cytochrome P450 2D6 (Homo sapiens, UniProt P10635);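 also: CYP2D6 member of a cytochrome P450 panel assay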
# [5] = target: Cytochrome P450 2C19 (Homo sapiens, UniProt P33261); experiment: Cytochrome panel assay with activity outcomes. Panel member name: p450-cyp2c19 Compounds with AC50 equal or less than 10 uM are considered active; assay type: functional
# [6] = target: T3, Cytochrome P450 1A2 (Homo sapiens, UniProt P05177);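 also: PubChem cytochrome P450 panel assay, CYP1A2 panel member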
# T3 sequence (P05177 whole entry): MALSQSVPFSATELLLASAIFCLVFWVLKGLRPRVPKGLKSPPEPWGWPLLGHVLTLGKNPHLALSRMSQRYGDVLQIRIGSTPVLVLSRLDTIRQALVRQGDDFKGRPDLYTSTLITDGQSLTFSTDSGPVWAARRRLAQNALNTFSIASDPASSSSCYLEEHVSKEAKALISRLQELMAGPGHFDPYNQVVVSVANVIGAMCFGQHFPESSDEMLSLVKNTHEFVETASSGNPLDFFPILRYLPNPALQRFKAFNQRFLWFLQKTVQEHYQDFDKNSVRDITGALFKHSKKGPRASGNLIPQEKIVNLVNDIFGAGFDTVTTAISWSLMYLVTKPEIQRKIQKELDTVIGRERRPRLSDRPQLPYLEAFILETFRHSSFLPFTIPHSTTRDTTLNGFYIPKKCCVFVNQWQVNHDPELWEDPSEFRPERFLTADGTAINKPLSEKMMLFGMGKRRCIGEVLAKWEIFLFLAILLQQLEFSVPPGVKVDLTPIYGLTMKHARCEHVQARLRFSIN
# [7] = inhibitors of intracellular T. cruzi replication, confirmation, NIH3T3 host cells, beta-gal luminescence (AID 2044); assay type: functional, cell-based;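 also: intracellular parasites grown in NIH/3T3 mouse fibroblasts as host cells; luminescent beta-galactosidase reporter signal from transgenic T. cruzi replicating inside host cells; inhibitors lower the luminescence signal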
# [8] = cytotoxicity toward NIH3T3 fibroblasts, dose response, counter-screen, cell-based, ATP luminescence, mouse fibroblasts (AID 2010); assay type: functional;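 also: cells exposed to compound for about 90 hours before reading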
# [9] = target: Cytochrome P450 2C9 (Homo sapiens, UniProt P11712)
# [10] = target: T4, Corticotropin-releasing factor receptor 2/Corticotropin-releasing factor-binding protein (Homo sapiens, UniProt P24387+Q13324); experiment: Dose Response confirmation of uHTS hits for small molecule antagonists of the CRF-binding protein and CRF-R2 receptor complex.; assay type: functional; conditions: read-out: IC50_Mean
# T4 sequence (Q13324 whole entry): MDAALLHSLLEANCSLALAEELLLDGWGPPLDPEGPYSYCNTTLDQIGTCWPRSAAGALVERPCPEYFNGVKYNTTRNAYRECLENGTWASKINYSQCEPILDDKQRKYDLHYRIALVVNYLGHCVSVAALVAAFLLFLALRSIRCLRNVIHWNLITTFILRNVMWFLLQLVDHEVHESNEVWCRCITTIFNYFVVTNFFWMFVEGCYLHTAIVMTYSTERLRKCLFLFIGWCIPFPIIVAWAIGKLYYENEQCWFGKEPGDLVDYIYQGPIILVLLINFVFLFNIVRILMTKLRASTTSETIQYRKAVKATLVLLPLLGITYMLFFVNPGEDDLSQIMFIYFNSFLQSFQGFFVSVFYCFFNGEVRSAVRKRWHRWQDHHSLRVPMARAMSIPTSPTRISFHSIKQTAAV
# T4 sequence (P24387 whole entry): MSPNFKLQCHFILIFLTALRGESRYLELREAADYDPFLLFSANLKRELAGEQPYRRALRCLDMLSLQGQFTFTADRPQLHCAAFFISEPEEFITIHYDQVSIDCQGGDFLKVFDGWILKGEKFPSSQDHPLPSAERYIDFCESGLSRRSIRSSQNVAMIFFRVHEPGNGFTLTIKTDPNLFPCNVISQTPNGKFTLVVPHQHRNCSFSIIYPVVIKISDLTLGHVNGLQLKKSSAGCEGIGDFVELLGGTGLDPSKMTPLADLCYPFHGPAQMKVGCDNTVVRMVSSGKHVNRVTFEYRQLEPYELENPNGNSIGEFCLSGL
# [11] = target: T4, Corticotropin-releasing factor receptor 2/Corticotropin-releasing factor-binding protein; experiment: activators of CRF receptor 2 with binding protein – uHTS hits, confirmation (AID 602473); assay type: functional; conditions: read-out: EC50_Mean
# Cytochrome P450 2C9, sequence (P11712 whole entry): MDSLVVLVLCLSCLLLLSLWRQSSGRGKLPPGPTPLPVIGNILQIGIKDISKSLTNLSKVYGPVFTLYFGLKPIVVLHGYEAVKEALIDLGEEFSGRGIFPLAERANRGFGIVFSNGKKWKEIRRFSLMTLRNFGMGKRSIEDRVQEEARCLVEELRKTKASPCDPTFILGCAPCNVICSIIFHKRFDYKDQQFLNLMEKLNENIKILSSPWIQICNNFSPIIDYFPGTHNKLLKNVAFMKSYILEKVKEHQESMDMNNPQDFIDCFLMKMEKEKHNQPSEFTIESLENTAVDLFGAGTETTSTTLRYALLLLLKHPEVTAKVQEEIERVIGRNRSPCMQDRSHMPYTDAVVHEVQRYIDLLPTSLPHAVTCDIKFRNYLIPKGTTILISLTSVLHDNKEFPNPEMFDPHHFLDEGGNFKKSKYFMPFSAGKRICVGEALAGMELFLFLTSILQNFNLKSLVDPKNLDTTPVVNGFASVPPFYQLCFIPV
# Cytochrome P450 2D6, sequence (P10635 whole entry): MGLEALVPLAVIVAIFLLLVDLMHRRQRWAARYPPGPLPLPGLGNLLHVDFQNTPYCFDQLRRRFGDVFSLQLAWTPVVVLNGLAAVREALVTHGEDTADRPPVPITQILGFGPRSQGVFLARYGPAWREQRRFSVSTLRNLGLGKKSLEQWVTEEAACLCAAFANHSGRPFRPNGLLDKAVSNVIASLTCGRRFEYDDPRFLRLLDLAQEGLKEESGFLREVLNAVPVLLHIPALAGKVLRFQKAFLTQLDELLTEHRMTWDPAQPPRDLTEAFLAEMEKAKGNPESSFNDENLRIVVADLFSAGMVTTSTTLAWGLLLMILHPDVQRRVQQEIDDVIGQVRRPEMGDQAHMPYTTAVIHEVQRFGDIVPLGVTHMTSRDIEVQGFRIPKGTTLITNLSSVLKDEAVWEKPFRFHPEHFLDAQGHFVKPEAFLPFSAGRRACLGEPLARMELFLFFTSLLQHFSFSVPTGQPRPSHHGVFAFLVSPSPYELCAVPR
# Cytochrome P450 3A4, sequence (P08684 whole entry): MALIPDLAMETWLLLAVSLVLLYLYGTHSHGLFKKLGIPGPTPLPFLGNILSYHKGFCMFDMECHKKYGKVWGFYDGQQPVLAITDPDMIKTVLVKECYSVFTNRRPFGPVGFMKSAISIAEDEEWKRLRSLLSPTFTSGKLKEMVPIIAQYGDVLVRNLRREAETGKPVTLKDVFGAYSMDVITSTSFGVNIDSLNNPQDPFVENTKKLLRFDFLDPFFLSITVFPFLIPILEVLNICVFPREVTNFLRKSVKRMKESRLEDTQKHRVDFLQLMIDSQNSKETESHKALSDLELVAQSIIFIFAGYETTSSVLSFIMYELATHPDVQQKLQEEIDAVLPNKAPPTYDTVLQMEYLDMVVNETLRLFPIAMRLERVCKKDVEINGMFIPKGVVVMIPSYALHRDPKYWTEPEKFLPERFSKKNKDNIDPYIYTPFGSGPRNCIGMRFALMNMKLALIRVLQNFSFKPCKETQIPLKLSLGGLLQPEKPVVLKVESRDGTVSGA
# Cytochrome P450 2C19, sequence (P33261 whole entry): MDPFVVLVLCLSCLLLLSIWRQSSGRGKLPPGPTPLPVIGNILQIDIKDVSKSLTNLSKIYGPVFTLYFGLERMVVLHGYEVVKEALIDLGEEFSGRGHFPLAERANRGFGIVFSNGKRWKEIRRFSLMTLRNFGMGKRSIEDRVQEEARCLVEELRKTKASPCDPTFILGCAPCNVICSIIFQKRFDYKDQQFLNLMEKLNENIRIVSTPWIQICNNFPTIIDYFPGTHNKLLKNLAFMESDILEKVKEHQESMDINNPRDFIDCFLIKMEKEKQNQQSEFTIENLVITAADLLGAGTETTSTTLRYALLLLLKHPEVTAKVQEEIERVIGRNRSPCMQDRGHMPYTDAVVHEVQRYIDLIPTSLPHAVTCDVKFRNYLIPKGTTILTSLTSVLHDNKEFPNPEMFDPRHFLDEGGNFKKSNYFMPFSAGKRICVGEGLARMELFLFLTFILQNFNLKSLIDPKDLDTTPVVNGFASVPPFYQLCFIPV
smiles,measurement,setting,value
COc1cccc(CN2CCN(Cc3ccc(C#CC(C)(C)O)s3)CC2CCO)c1 (stereo unspecified),AC50,[1],> 380 µM (inactive)
same,EC50,[2],> 380 µM (inactive)
CC[C@@]1(O)C(=O)COc2c1cc1n(c2=O)Cc2c-1nc1cccc(C(C)C)c1c2[Si](C)(C)C,AC50,[3],15.8 µM (inconclusive)
COc1cccc(Cn2c(=O)c(-c3cccc(F)c3)nc3cncnc32)c1,AC50,[4],20 µM (inconclusive)
same,AC50,[3],7.94 µM (inconclusive)
CC1=NC2(O)c3ccccc3C(=O)C2(O)/C1=C(/O)OC(C)C (stereo unspecified),AC50,[1],21.2 µM (active)
same,EC50,[2],14.7 µM (active)
CCCn1c(=O)[nH]c(=O)c2c1nc(-c1ccc(OC(F)F)c(OC)c1)n2CCOC,AC50,[1],> 380 µM (inactive)
same,EC50,[2],> 380 µM (inactive)
O=C(Nc1cccc(F)c1)N1CCC2(CC1)CCN(C(=O)c1ccncc1)CC2,AC50,[3],12.6 µM (inconclusive)
Cc1ccc(C2C(C#N)=C(N)Oc3[nH]nc(-c4ccccc4)c32)o1 (stereo unspecified),AC50,[1],4.75 µM (active)
same,EC50,[2],19.3 µM (active)
CCOc1ccc(C2=Nn3c(nnc3-c3ccco3)SC2)cc1,AC50,[3],15.8 µM (inconclusive)
O=C(c1ccncc1)N1CCC2(CC1)CCN(c1ccccn1)CC2,AC50,[5]; read-out: AC50,1 µM (inconclusive)
same,AC50,[4],31.6 µM (inconclusive)
same,AC50,[6],12.6 µM (inconclusive)
O=c1c2c(n3cnnc3n1-c1ccccc1)-c1ccccc1CC21CCCCC1,AC50,[5],inconclusive
same,AC50,[3],15.8 µM (inconclusive)
Cc1ccc(C)c(NC(=S)N(CCc2nc3cc(C)c(C)cc3[nH]2)Cc2cccnc2)c1,EC50,[7],0.813 µM (active)
same,EC50,[8],> 60 µM (not active)
same,AC50,[5]; read-out: AC50,2 µM (inconclusive)
same,AC50,[6],4.47 µM (inconclusive)
COc1ccccc1N1CCN(CCN2C(=O)CC3(CCCC3)CC2=O)CC1 [BMY-7378],AC50,[3],20 µM (inconclusive) and 39.8 µM (inconclusive)
O=C(NCCNS(=O)(=O)c1ccc(Cl)cc1)c1cc(OCC(F)(F)F)ccc1OCC(F)(F)F,AC50,[4],3.16 µM (inconclusive)
same,AC50,[6],2.82 µM (inconclusive)
same,AC50,[3],7.08 µM (inconclusive)
same,AC50,[9],0.0251 µM (inconclusive)
C/C(CC(=O)Nc1ccccn1)=N\NC(=O)c1ccncc1,AC50,[1],2.86 µM (active)
same,EC50,[2],1.94 µM (active)
C/C(=N\NC(=O)c1cccc(C)c1)c1cccc(NC(=O)c2ccco2)c1,AC50,[5]; read-out: AC50,39.8 µM (inconclusive)
same,AC50,[6],14.1 µM (inconclusive)
same,AC50,[9],39.8 µM (inconclusive)
CSC1=N/C(=C\c2ccc3c(c2)OCO3)C(=O)S1,AC50,[3],7.94 µM (inconclusive)
O=C(C/C=N\OCc1c(Cl)cccc1Cl)Oc1ccc(Cl)cc1Cl,AC50,[1],21.8 µM (active)
same,EC50,[2],7.56 µM (active)
COc1cc2c(cc1OC)[C@]13CC[N@+]4(C)CC5=CCO[C@H]6CC(=O)N2[C@@H]1[C@@H]6[C@@H]5C[C@]34O,AC50,[3],1 µM (inconclusive)
N#Cc1cccc(-c2nc(Nc3ccncc3)c3ccccc3n2)c1,AC50,[3],0.501 µM (inconclusive)
same,AC50,[9],1.58 µM (inconclusive)
Cc1cc(NC(=O)CSc2ccc3nnc(-c4ccc(F)cc4)n3n2)no1,AC50,[3],14.1 µM (inconclusive)
same,AC50,[9],25.1 µM (inconclusive)
CO[C@@H]1/C=C\CC(=O)N[C@@H](C)C(=O)OC[C@@H](OC)[C@H](C)/C=C\CC(=O)OC[C@H]1C,AC50,[3],3.98 µM (inconclusive)
COc1ccc(OC)c(-c2[nH]nc3c2C(c2ccco2)C(C#N)=C(N)O3)c1 (stereo unspecified),AC50,[1],185 µM (active)
same,EC50,[2],3.22 µM (active)
CCOC(=O)N1CCN(C(=O)c2ccc3nc(SCc4ccc(F)cc4)n(C)c3c2)CC1,IC50,[10],> 47.1 µM (inactive)
same,EC50,[11],> 53 µM (inactive)
same,AC50,[3],39.8 µM (inconclusive)
COC(=O)c1c(C)ccc2c(O)c3c(cc12)C(=O)c1c2c(cc(O)c1C3=O)[C@@]1(C)O[C@@](C)(O2)[C@@H](O)[C@H](N(C)C)[C@H]1O,AC50,[5]; read-out: AC50,3.98 µM (inconclusive)
same,AC50,[6],5.01 µM (inconclusive)
same,AC50,[9],2.51 µM (inconclusive)
O=C(CCn1nc(-c2ccc(Cl)cc2)c2ccccc2c1=O)NCCN1CCOCC1,AC50,[5]; read-out: AC50,28.2 µM (inconclusive)
same,AC50,[4],15.8 µM (inconclusive)
same,AC50,[9],17.8 µM (inconclusive)
COc1ccc(OC)c(N(CC(=O)N2CCc3ccccc3C2)S(C)(=O)=O)c1,AC50,[5]; read-out: AC50,11.2 µM (inconclusive)
same,AC50,[6],15.8 µM (inconclusive)
same,AC50,[9],12.6 µM (inconclusive)
CN(C)Cc1ccccc1-c1nccc(N(C)Cc2ccco2)n1,AC50,[3],31.6 µM (inconclusive)
